Measured values as given in patent US11000033B2, “Ketone or oxime compound, and herbicide” (NISSAN CHEMICAL CORPORATION, priority 2014, dated 2021).

Columns and labels:
Type in all cases: in vivo
rapeseed = assay: Test Example 5: effect on crop by foliage application, plastic box (symbol g); conditions: 320 g/ha, 3 weeks after application
Method in brief: (§1)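 Foliage-application test plants come from spot sowing in sterilized diluvial soil under a soil layer of about 1.5 cm, grown at 25° C. to 30° C. in a greenhouse.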

transplanted rice plant = assay: Test Example 1: effect on crop, application before weed generation in submerged conditions (symbol a); conditions: application herbicide amount 320 g/ha
Experimental: (§2) Herbicidal Activity Test by Application Before Weed Generation in Submerged Conditions
After alluvial soil was placed into 1/10000 are of Wagner pot, water was poured and mixed to form a submerged condition having a water depth of 4 cm. Seeds of Echinochloa oryzacola Vasing., Scirpus juncoides, and Monochoria vaginalis were sowed in a mixed manner in the above pot and thereafter 2.5 leaf stage rice plant seedlings were transplanted thereto. […] The pot was placed in a greenhouse of 25° C. to 30° C. to grow plant. 3 weeks later from the herbicide application, the effect to each plant was investigated in accordance with the following criteria.
(§3) 5 Herbicidal ratio of 90% or more (almost completely withered)
(§4) 4 Herbicidal ratio of 70% or higher and lower than 90%
(§5) 3 Herbicidal ratio of 40% or higher and lower than 70%
(§6) 2 Herbicidal ratio of 20% or higher and lower than 40%
(§7) 1 Herbicidal ratio of 5% or higher and lower than 20%
(§8) 0 Herbicidal ratio of 5% or lower (almost no effect)

Apera spica-venti = assay: Test Example 5: herbicidal effect by foliage application, plastic box (symbol L); conditions: 320 g/ha, 3 weeks after application
Method in brief: (§9)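 Visual herbicidal score, taken three weeks post-application, of seedlings sprayed on the foliage with water-diluted emulsion at a predetermined amount; plants were 14 days old, greenhouse-raised at 25° C. to 30° C.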

corn = assay: Test Example 5: effect on crop by foliage application, plastic box (symbol c); conditions: 320 g/ha, 3 weeks after application
Method in brief: as §1

beet = assay: Test Example 5: effect on crop by foliage application, plastic box (symbol f); conditions: 320 g/ha, 3 weeks after application
Method in brief: as §1

rice plant = assay: Test Example 5: effect on crop by foliage application, plastic box (symbol b); conditions: 320 g/ha, 3 weeks after application
Method in brief: as §1

Alopecurus myosuroides = assay: Test Example 5: herbicidal effect by foliage application, plastic box (symbol J); conditions: 320 g/ha, 3 weeks after application
Method in brief: as §9

[1] = test system: Echinochloa crus-galli var. crus-galli; assay: Test Example 3: herbicidal effect by foliage application, Wagner pot (symbol H); conditions: application herbicide amount 320 g/ha, Table 24
Method in brief: (§10)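 In a shallow-flooded alluvial soil system held at 25–30 °C, plants including rice grew for 14 days and were then sprayed over the foliage with emulsion diluted to a fixed herbicide amount. Visual rating followed at 3 weeks.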

Veronica persica = assay: Test Example 5: herbicidal effect by foliage application, plastic box (symbol R); conditions: 320 g/ha, 3 weeks after application
Method in brief: as §9

Galium spurium = assay: Test Example 5: herbicidal effect by foliage application, plastic box (symbol Q); conditions: 320 g/ha, 3 weeks after application
Method in brief: as §9

Lolium multiflorum Lam. = assay: Test Example 5: herbicidal effect by foliage application, plastic box (symbol K); conditions: 320 g/ha, 3 weeks after application
Method in brief: as §9

[2] = test system: Echinochloa crus-galli var. crus-galli; assay: Test Example 5: herbicidal effect by foliage application, plastic box (symbol H); conditions: 320 g/ha, 3 weeks after application
Method in brief: as §9

Avena fatua = assay: Test Example 5: herbicidal effect by foliage application, plastic box (symbol I); conditions: 320 g/ha, 3 weeks after application
Method in brief: as §9

Stellaria media = assay: Test Example 5: herbicidal effect by foliage application, plastic box (symbol P); conditions: 320 g/ha, 3 weeks after application
Method in brief: as §9

wheat = assay: Test Example 5: effect on crop by foliage application, plastic box (symbol e); conditions: 320 g/ha, 3 weeks after application
Method in brief: as §1

Cyperus difformis = assay: Test Example 3: herbicidal effect by foliage application, Wagner pot (symbol E); conditions: application herbicide amount 320 g/ha, Table 24
Method in brief: as §10

Digitaria ciliaris = assay: Test Example 5: herbicidal effect by foliage application, plastic box (symbol F); conditions: 320 g/ha, 3 weeks after application
Method in brief: as §9

Leptochloa chinensis = assay: Test Example 3: herbicidal effect by foliage application, Wagner pot (symbol D); conditions: application herbicide amount 320 g/ha, Table 24
Method in brief: as §10

Amaranthus retroflexus = assay: Test Example 5: herbicidal effect by foliage application, plastic box (symbol N); conditions: 320 g/ha, 3 weeks after application
Method in brief: as §9

Monochoria vaginalis = assay: Test Example 1: herbicidal activity, application before weed generation in submerged conditions (symbol C); conditions: application herbicide amount 320 g/ha
Text: as §2
(§11) After alluvial soil was placed into 1/10000 are of Wagner pot, water was poured and mixed to form a submerged condition having a water depth of 4 cm. Seeds of Echinochloa oryzacola Vasing., Scirpus juncoides, and Monochoria vaginalis were sowed in a mixed manner in the above pot and thereafter 2.5 leaf stage rice plant seedlings were transplanted thereto. On the day of sowing seeds, the emulsion agent of the compound of the present invention prepared in accordance with Formulation Example 2 was diluted with water so as to be a predetermined herbicide amount and the diluted emulsion agent was applied to the surface of the water. The pot was placed in a greenhouse of 25° C. to 30° C. to grow plant. 3 weeks later from the herbicide application, the effect to each plant was investigated in accordance with the following criteria.
as §3, §4, §5, §6, §7, §8

Chenopodium album = assay: Test Example 5: herbicidal effect by foliage application, plastic box (symbol O); conditions: 320 g/ha, 3 weeks after application
Method in brief: as §9

Setaria viridis = assay: Test Example 5: herbicidal effect by foliage application, plastic box (symbol G); conditions: 320 g/ha, 3 weeks after application
Method in brief: as §9

Scirpus juncoides = assay: Test Example 1: herbicidal activity, application before weed generation in submerged conditions (symbol B); conditions: application herbicide amount 320 g/ha
Text: as §2, §11, §3, §4, §5, §6, §7, §8

soybean = assay: Test Example 5: effect on crop by foliage application, plastic box (symbol d); conditions: 320 g/ha, 3 weeks after application
Method in brief: as §1

[3] = test system: directly sowed rice plant; assay: Test Example 3: effect on crop by foliage application, Wagner pot (symbol b); conditions: application herbicide amount 320 g/ha, Table 24
Method in brief: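 Wagner pot (1/10000 are), alluvial soil, submerged 0.1–0.5 cm; sown E. crus-galli var. crus-galli, L. chinensis, C. difformis, rice; greenhouse 25–30 °C.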

[4] = test system: Echinochloa oryzacola Vasing.; assay: Test Example 1: herbicidal activity, application before weed generation in submerged conditions (symbol A); conditions: application herbicide amount 320 g/ha
Text: as §2, §11, §3, §4, §5, §6, §7, §8

Abutilon theophrasti = assay: Test Example 5: herbicidal effect by foliage application, plastic box (symbol M); conditions: 320 g/ha, 3 weeks after application
Method in brief: as §9

In the case of `CC(CC1CC(OC(=O)N(C)C)=C(c2c(C)cc(-c3ccc(Cl)cc3)cc2C)C1=O)=NOCC(F)(F)F` (mixture of isomers) [9-026], the “g: rapeseed, effect on crop grade” value (rapeseed) was 0 (Herbicidal ratio of 5% or lower (almost no effect)), the “a (transplanted rice plant) effect on crop grade” value (transplanted rice plant) was 0 (Herbicidal ratio of 5% or lower (almost no effect)) and the “L: Apera spica-venti, herbicidal effect grade” value (Apera spica-venti) was 0 (Herbicidal ratio of 5% or lower (almost no effect)). The “c: corn, effect on crop grade” value (corn) was 5 (Herbicidal ratio of 90% or more (almost completely withered)), the “f: beet, effect on crop grade” value (beet) was 0 (Herbicidal ratio of 5% or lower (almost no effect)) and the “b: directly sowed rice plant, effect on crop grade” value (rice plant) was 0 (Herbicidal ratio of 5% or lower (almost no effect)). The “J: Alopecurus myosuroides, herbicidal effect grade” value (Alopecurus myosuroides) was 0 (Herbicidal ratio of 5% or lower (almost no effect)), the “H (Echinochloa crus-galli var. crus-galli) herbicidal effect grade” value [1] was 0 (Herbicidal ratio of 5% or lower (almost no effect)) and the “R: Veronica persica, herbicidal effect grade” value (Veronica persica) was 0 (Herbicidal ratio of 5% or lower (almost no effect)). The “Q: Galium spurium, herbicidal effect grade” value (Galium spurium) was 0 (Herbicidal ratio of 5% or lower (almost no effect)), the “K: Lolium multiflorum Lam., herbicidal effect grade” value (Lolium multiflorum Lam.) was 0 (Herbicidal ratio of 5% or lower (almost no effect)) and the “H: Echinochloa crus-galli var. crus-galli, herbicidal effect grade” value [2] was 0 (Herbicidal ratio of 5% or lower (almost no effect)). For the same compound, the “I: Avena fatua, herbicidal effect grade” value (Avena fatua) was 3 (Herbicidal ratio of 40% or higher and lower than 70%), the “P: Stellaria media, herbicidal effect grade” value (Stellaria media) was 0 (Herbicidal ratio of 5% or lower (almost no effect)) and the “e: wheat, effect on crop grade” value (wheat) was 0 (Herbicidal ratio of 5% or lower (almost no effect)). For the same compound, the “E herbicidal effect grade” value (Cyperus difformis) was 0 (Herbicidal ratio of 5% or lower (almost no effect)), the “F: Digitaria ciliaris, herbicidal effect grade” value (Digitaria ciliaris) was 5 (Herbicidal ratio of 90% or more (almost completely withered)) and the “D (Leptochloa chinensis) herbicidal effect grade” value (Leptochloa chinensis) was 3 (Herbicidal ratio of 40% or higher and lower than 70%). For the same compound, the “N: Amaranthus retroflexus, herbicidal effect grade” value (Amaranthus retroflexus) was 0 (Herbicidal ratio of 5% or lower (almost no effect)), the “C (Monochoria vaginalis) herbicidal effect grade” value (Monochoria vaginalis) was 0 (Herbicidal ratio of 5% or lower (almost no effect)) and the “O: Chenopodium album, herbicidal effect grade” value (Chenopodium album) was 0 (Herbicidal ratio of 5% or lower (almost no effect)). For the same compound, the “G: Setaria viridis, herbicidal effect grade” value (Setaria viridis) was 4 (Herbicidal ratio of 70% or higher and lower than 90%), the “B (Scirpus juncoides) herbicidal effect grade” value (Scirpus juncoides) was 0 (Herbicidal ratio of 5% or lower (almost no effect)) and the “d: soybean, effect on crop grade” value (soybean) was 0 (Herbicidal ratio of 5% or lower (almost no effect)). For the same compound, the “b (directly sowed rice plant) effect on crop grade” value [3] was 0 (Herbicidal ratio of 5% or lower (almost no effect)), the “A (Echinochloa oryzacola Vasing.) herbicidal effect grade” value [4] was 4 (Herbicidal ratio of 70% or higher and lower than 90%) and the “M: Abutilon theophrasti, herbicidal effect grade” value (Abutilon theophrasti) was 0 (Herbicidal ratio of 5% or lower (almost no effect)).

In the case of `CC(=O)CC1CC(O)=C(c2c(C)cc(-n3cncn3)cc2C)C1=O` (stereo not drawn) [7-026], the “g: rapeseed, effect on crop (criteria of Test Example 1)” value (rapeseed) was 0 (Herbicidal ratio of 5% or lower (almost no effect)), the “Effect grade on crop, a: transplanted rice plant” value (transplanted rice plant) was 0 (Herbicidal ratio of 5% or lower (almost no effect)) and the “L: Apera spica-venti, herbicidal effect (criteria of Test Example 1)” value (Apera spica-venti) was 0 (Herbicidal ratio of 5% or lower (almost no effect)). The “c: corn, effect on crop (criteria of Test Example 1)” value (corn) was 0 (Herbicidal ratio of 5% or lower (almost no effect)), the “f: beet, effect on crop (criteria of Test Example 1)” value (beet) was 0 (Herbicidal ratio of 5% or lower (almost no effect)) and the “b: directly sowed rice plant, effect on crop (criteria of Test Example 1)” value (rice plant) was 0 (Herbicidal ratio of 5% or lower (almost no effect)). For the same compound, the “J: Alopecurus myosuroides, herbicidal effect (criteria of Test Example 1)” value (Alopecurus myosuroides) was 1 (Herbicidal ratio of 5% or higher and lower than 20%), the “H (Echinochloa crus-galli var. crus-galli) herbicidal effect grade” value [1] was 0 (Herbicidal ratio of 5% or lower (almost no effect)) and the “R: Veronica persica, herbicidal effect (criteria of Test Example 1)” value (Veronica persica) was 0 (Herbicidal ratio of 5% or lower (almost no effect)). For the same compound, the “Q: Galium spurium, herbicidal effect (criteria of Test Example 1)” value (Galium spurium) was 0 (Herbicidal ratio of 5% or lower (almost no effect)), the “K: Lolium multiflorum Lam., herbicidal effect (criteria of Test Example 1)” value (Lolium multiflorum Lam.) was 1 (Herbicidal ratio of 5% or higher and lower than 20%) and the “H: Echinochloa crus-galli var. crus-galli, herbicidal effect (criteria of Test Example 1)” value [2] was 1 (Herbicidal ratio of 5% or higher and lower than 20%). For the same compound, the “I: Avena fatua, herbicidal effect (criteria of Test Example 1)” value (Avena fatua) was 0 (Herbicidal ratio of 5% or lower (almost no effect)), the “P: Stellaria media, herbicidal effect (criteria of Test Example 1)” value (Stellaria media) was 0 (Herbicidal ratio of 5% or lower (almost no effect)) and the “e: wheat, effect on crop (criteria of Test Example 1)” value (wheat) was 0 (Herbicidal ratio of 5% or lower (almost no effect)). The “E herbicidal effect grade” value (Cyperus difformis) was 0 (Herbicidal ratio of 5% or lower (almost no effect)), the “F: Digitaria ciliaris, herbicidal effect (criteria of Test Example 1)” value (Digitaria ciliaris) was 0 (Herbicidal ratio of 5% or lower (almost no effect)) and the “D (Leptochloa chinensis) herbicidal effect grade” value (Leptochloa chinensis) was 3 (Herbicidal ratio of 40% or higher and lower than 70%). The “N: Amaranthus retroflexus, herbicidal effect (criteria of Test Example 1)” value (Amaranthus retroflexus) was 0 (Herbicidal ratio of 5% or lower (almost no effect)), the “Herbicidal effect grade, C: Monochoria vaginalis” value (Monochoria vaginalis) was 0 (Herbicidal ratio of 5% or lower (almost no effect)) and the “O: Chenopodium album, herbicidal effect (criteria of Test Example 1)” value (Chenopodium album) was 0 (Herbicidal ratio of 5% or lower (almost no effect)). The “G: Setaria viridis, herbicidal effect (criteria of Test Example 1)” value (Setaria viridis) was 0 (Herbicidal ratio of 5% or lower (almost no effect)), the “Herbicidal effect grade, B: Scirpus juncoides” value (Scirpus juncoides) was 0 (Herbicidal ratio of 5% or lower (almost no effect)) and the “d: soybean, effect on crop (criteria of Test Example 1)” value (soybean) was 0 (Herbicidal ratio of 5% or lower (almost no effect)). The “b (directly sowed rice plant) effect on crop grade” value [3] was 0 (Herbicidal ratio of 5% or lower (almost no effect)), the “Herbicidal effect grade, A: Echinochloa oryzacola Vasing.” value [4] was 3 (Herbicidal ratio of 40% or higher and lower than 70%) and the “M: Abutilon theophrasti, herbicidal effect (criteria of Test Example 1)” value (Abutilon theophrasti) was 0 (Herbicidal ratio of 5% or lower (almost no effect)).
